Measurements reported in US12721809B2, “Formulation for treating ophthalmic conditions” (Guangzhou KangRui Biological Pharmaceutical Technology Co., …, priority 2021, dated 2026).
Values after ≈ are worked out from the molar mass of the structure shown. Values joined by “and” are separate entries in the source; they are usually repeats but may differ in a detail not shown here. Equal entries are not always repeated.

Assays:
Assay type in all cases: physicochemical
[1] = Solubility of KDR2-2 in different media
[2] = Particle size of KDR2-2 API before and after pulverization (Malvern); details: for Particle size Dv (10) / Particle size Dv (50) / Particle size Dv (90): dry method (Mastersizer 3000); for D10 (μm) / D50 (μm) / D90 (μm): listed as KDR2-2 API
Experimental: Particle sizes: KDR2-2 is a poorly soluble drug with large particle sizes. The drug substance should be micronized to meet the quality standards of KDR2-2 Suspension Eye Drop. The result of microscopic observation of KDR2-2 (Batch #CK0120554-02-03P-01-32-01) in 1% Kolliphor® HS 15 is shown in FIG. 1, and the particle sizes of KDR2-2 (Batch #CK0120554-02-03P-01-32-01) in 1% Kolliphor® HS 15 were measured by malvern and is presented in Table 4.
(§1) The drug particle size for suspension eye drops should be reduced to level <10 μm in an attempt to avoid excessive lacrimation, the micronization process of drug substance was studied. The micronization process parameters of the jet are: injection pressure is 5 bar; crushing pressure is 3 bar. The particle size and distribution of the KDR2-2 API were measured before and after pulverization, to determine whether the API satisfies the formulation requirements after pulverization.
as §1, with “studied. Certain amount of KDR2-2 API was taken and fed into a jet mill.” for “studied.”, “bar; the media for micronization is air.” for “bar.”, “was” for “were”, “pulverization using the dry method (Mastersizer 3000, Malvern),” for “pulverization,”

[3] = API content/purity by liquid chromatography before and after pulverization; details: for HPLC peak (percentage of peak area), Impurity 1: Impurity 1 = Intermediate A; for HPLC peak (percentage of peak area), Impurity 2: Impurity 2 = Intermediate B
Experimental: API content was determined by liquid chromatography, Diamonsil® plus-C18 column (4.6×150 mm, […]), mobile phase: acetonitrile (with 0.2‰ trifluoroacetic acid):water (with 0.2‰ trifluoroacetic acid), acetonitrile gradient 5-95%, time: 17 min, column temperature 20° C., detection wavelength 254 nm. The results are shown as follows and in FIGS. 5A-5B: […]

[4] = KDR2-2 API after micronization (jet mill)
[5] = KDR2-2 API before micronization
[6] = after pulverization (jet mill, 5 bar/3 bar)
[7] = before pulverization, in 1% Kolliphor® HS 15, batch CK0120554-02-03P-01-32-01

- solubility ([1]; acetone, organic solvent or mixture): 7700 to 11500 µg/mL (≈ 18.1 to 27 mM)
- solubility ([1]; acetone/water, aqueous with cosolvent or surfactant or cyclodextrin): 7300 to 11000 µg/mL (≈ 17.2 to 25.9 mM)
- solubility ([1]; acetonitrile, organic solvent or mixture): 1700 to 1900 µg/mL (≈ 4 to 4.47 mM)
- solubility ([1]; chloroform, organic solvent or mixture): < 1100 µg/mL
- solubility ([1]; dimethylsulfoxide, organic solvent or mixture): > 28000 µg/mL
- solubility ([1]; ethanol, organic solvent or mixture): 2400 to 2700 µg/mL (≈ 5.64 to 6.35 mM)
- solubility ([1]; ethyl acetate, organic solvent or mixture): 3800 to 4600 µg/mL (≈ 8.93 to 10.8 mM)
- solubility ([1]; iso-propyl alcohol, organic solvent or mixture): < 1100 µg/mL
- solubility ([1]; methanol, organic solvent or mixture): 6300 to 9500 µg/mL (≈ 14.8 to 22.3 mM)
- solubility ([1]; methyl isobutyl ketone, organic solvent or mixture): 1800 to 2200 µg/mL (≈ 4.23 to 5.17 mM)
- solubility ([1]; methyl tert-butyl ether, organic solvent or mixture): < 1200 µg/mL
- solubility ([1]; tetrahydrofuran, organic solvent or mixture): > 18000 µg/mL
- solubility ([1]; toluene, organic solvent or mixture): < 900 µg/mL
- solubility ([1]; water): < 1100 µg/mL
- Particle size Dv (10) [2, 4]: 0.304 μm
- Particle size Dv (50) [2, 4]: 1.75 μm
- Particle size Dv (90) [2, 4]: 3.83 μm
- Particle size Dv (10) [2, 5]: 2.33 μm
- Particle size Dv (50) [2, 5]: 10.5 μm
- Particle size Dv (90) [2, 5]: 472 μm
- D10 (μm) [2, 6]: 0.957 μm and 0.949 μm and 0.946 μm
- D50 (μm) [2, 6]: 3.55 μm and 3.46 μm and 3.41 μm
- D90 (μm) [2, 6]: 8.03 μm and 7.59 μm and 7.47 μm
- D10 (μm) [2, 7]: 55.9 μm and 33.0 μm and 45.5 μm
- D50 (μm) [2, 7]: 162 μm and 105 μm and 138 μm
- D90 (μm) [2, 7]: 375 μm and 292 μm and 353 μm
- HPLC peak (percentage of peak area), KDR2-2 ([3]; KDR2-2 API after micronization): Peak area % = 99.839%
- HPLC peak (percentage of peak area), Impurity 1 ([3]; KDR2-2 API after micronization): Peak area % = 0.085%
- HPLC peak (percentage of peak area), Impurity 2 ([3]; KDR2-2 API after micronization): Peak area % = 0.075%
- HPLC peak (percentage of peak area), KDR2-2 [3, 5]: Peak area % = 99.820%
- HPLC peak (percentage of peak area), Impurity 1 [3, 5]: Peak area % = 0.08%
- HPLC peak (percentage of peak area), Impurity 2 [3, 5]: Peak area % = 0.101%
Compound: Nc1nccc(Oc2ccc3c(C(=O)Nc4cccc(C(F)(F)F)c4)cccc3n2)n1 [KDR2-2, 2-(2-Aminopyrimidin-4-yloxy)-N-(3-(trifluoromethyl)phenyl)quinoline-5-carboxamide]
